Data taken from patent US10450347B2, “Immunomodulators” (BRISTOL-MYERS SQUIBB COMPANY, priority 2015, dated 2019).
Starred links: 1 amine or outer side, 2 acyl side, 3 side chain; linkers in the order of their positions; H or OH if unused. Positions of bridges follow the written chain, without caps; N, C: chain ends. Non-standard residues stand in square brackets, D forms with d. Residues, ends and D or L forms follow the SMILES beside them. Tyrψ(CN4)Ala = C[C@@H](C(=O)[*:2])n1nnnc1[C@H](Cc1ccc(O)cc1)N[*:1]; X1 = CCCC[C@@H](C(=O)[*:2])n1nnnc1[C@H](Cc1c[nH]c2ccccc12)N[*:1]; X2 = O=C(Cn1nnnc1C1(N[*:1])CCCCC1)[*:2]; Hyp = O=C(O)[C@@H]1C[C@@H](O)CN1; NMeF = CN[C@@H](Cc1ccccc1)C(=O)O; NMeNle = CCCC[C@H](NC)C(=O)O; NMeA = CN[C@@H](C)C(=O)O; Orn = NCCC[C@H](N)C(=O)O; Dap = NC[C@H](N)C(=O)O; Sar = CNCC(=O)O

Tests used:
[1] = oral administration, extensive first-pass metabolism in the liver; cited from earlier work
[2] = biological target: T1, PD-1-Ig/PD-L1-His (Homo sapiens, UniProt Q9NZQ7); assay: PD-1/PD-L1 Homogenous Time-Resolved Fluorescence (HTRF) binding assay; details: inhibition of PD-1-Ig binding to PD-L1-TVMV-His
T1 construct: [hPD-L1(19-239)-tobacco vein mottling virus protease cleavage site (TVMV)-His]; made in house; host or cells: HEK293T cells
T1 sequence (Q9NZQ7 with tags, fused parts or gaps): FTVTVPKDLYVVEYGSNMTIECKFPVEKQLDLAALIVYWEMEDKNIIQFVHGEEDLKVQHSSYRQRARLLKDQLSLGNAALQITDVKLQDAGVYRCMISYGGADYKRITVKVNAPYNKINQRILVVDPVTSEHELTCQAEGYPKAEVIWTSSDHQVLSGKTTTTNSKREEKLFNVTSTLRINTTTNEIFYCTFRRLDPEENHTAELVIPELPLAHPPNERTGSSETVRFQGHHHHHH

Row | SMILES | IC50 ([2]; range classes) [nM] | further results
1 | CCCC1O[C@@H]2C[C@H]3[C@@H]4CCC5=CC(=O)C=C[C@]5(C)[C@H]4[C@@H](O)C[C@]3(C)[C@]2(C(=O)CO)O1 (stereo partly drawn) [budesonide] | – | bioavailability [1]: about 10%
2 | CCCC[C@H]1C(=O)N(C)[C@@H](CCCC)C(=O)N[C@@H](CCCN)C(=O)N[C@H](C(=O)NCC(N)=O)CSCC(=O)N[C@@H](Cc2ccc(O)cc2)c2nnnn2[C@@H](C)C(=O)N[C@@H](CC(N)=O)C(=O)N2CCC[C@H]2C(=O)N[C@@H](CN)C(=O)N[C@@H](CC(C)C)C(=O)N2C[C@H](O)C[C@H]2C(=O)N[C@@H](Cc2c[nH]c3ccccc23)C(=O)N[C@@H](CO)C(=O)N[C@@H](Cc2c[nH]c3ccccc23)C(=O)N1C [Example 1014] ({CH2CO}-[Tyrψ(CN4)Ala]NP[Dap]L[Hyp]WSW[NMeNle][NMeNle][Orn]CG-NH2; thioether N-13) | 5 to 9.9 | –
3 | CCCC[C@H]1C(=O)N(C)CC(=O)N[C@@H](CC(=O)O)C(=O)N[C@@H](C(C)C)C(=O)N(C)[C@@H](Cc2ccccc2)C(=O)NC2(CCCCC2)c2nnnn2CC(=O)N[C@@H](Cc2c[nH]c3ccccc23)C(=O)N[C@@H](Cc2ccc(O)cc2)C(=O)N[C@@H](CC(C)C)C(=O)N[C@H](C(=O)NCC(N)=O)CSCC(=O)N[C@@H](Cc2ccccc2)C(=O)N(C)[C@@H](Cc2ccccc2)C(=O)N1C [Example 3003] ({CH2CO}-F[NMeF][NMeNle][Sar]DV[NMeF][X2]WYLCG-NH2; thioether N-12) | – | IC50 ([2]; numeric values): 590 nM
4 | CCCC[C@H]1C(=O)N[C@@H](CN)C(=O)N[C@H](C(=O)NCC(N)=O)CSCC(=O)N[C@@H](Cc2ccc(O)cc2)C(=O)N(C)[C@@H](C)C(=O)N[C@@H](CC(=O)O)C(=O)N2CCC[C@H]2C(=O)N[C@@H](Cc2cnc[nH]2)C(=O)N[C@@H](CCC(N)=O)C(=O)N2C[C@H](O)C[C@H]2C(=O)N[C@@H](Cc2c[nH]c3ccccc23)C(=O)N[C@@H](CO)C(=O)N[C@@H](Cc2cccc3ccccc23)c2nnnn2[C@@H](CCCC)C(=O)N1C [Example 1107] | 100 to 10000 | –
5 | CCCCC1C(=O)N(C)[C@@H](CCCC)C(=O)N[C@@H](CCCNC(=N)N)C(=O)N[C@H](C(=O)NCC(N)=O)CSCC(=O)N[C@@H](Cc2ccccc2)c2nnnn2[C@@H](C)C(=O)N[C@@H](CC(N)=O)C(=O)N2CCC[C@H]2C(=O)N[C@@H](Cc2cnc[nH]2)C(=O)N[C@@H](CC(C)C)C(=O)N(C)CC(=O)N[C@@H](Cc2c[nH]c3ccccc23)C(=O)N[C@@H](CO)C(=O)N[C@@H](Cc2cccc3ccccc23)c2nnnn21 (stereo partly drawn) [Example 1007] | 100 to 10000 | –
6 | CCCC[C@H]1C(=O)N[C@@H](C)C(=O)N[C@H](C(=O)NCC(N)=O)CSCC(=O)N[C@@H](Cc2ccc(O)cc2)C(=O)N(C)[C@@H](C)C(=O)N[C@@H](CC(N)=O)C(=O)N2CCC[C@H]2C(=O)N[C@@H](CN)C(=O)N[C@@H](CC(C)C)C(=O)N2C[C@H](O)C[C@H]2C(=O)N[C@@H](Cc2c[nH]c3ccccc23)C(=O)N[C@@H](CO)C(=O)N[C@@H](Cc2c[nH]c3ccccc23)c2nnnn2[C@@H](CCCC)C(=O)N1C [Example 1100] ({CH2CO}-Y[NMeA]NP[Dap]L[Hyp]WS[X1][NMeNle]ACG-NH2; thioether N-13) | 100 to 10000 | –
